Assay results published in US20240208963A1, “CRYSTALLINE MELANOCORTIN SUBTYPE-2 RECEPTOR (MC2R) ANTAGONIST” (Crinetics Pharmaceuticals, Inc., priority 2022, published 2024).
Structures can show the parent of a compound that is named as a salt. Where two headings read alike, the source gives them in different places. Marks after values point to notes of the source that are not given here.

What was measured:
[1] = Solubility of solid state forms in solvents (gravimetric or solvent addition); format: physicochemical
Method: The solubility of certain solid state forms of Compound I was determined in various solvents by either gravimetric solubility or solvent addition.
About 25 mg of compound was weighed into vials. Approximately 5 vol. (0.125 mL) of solvent was added to the solids and the mixtures stirred at the designated temperature (RT or 50° C.). Solutions were noted and an additional 0.125 mL of solvent was added to the slurries. […] If a thicker slurry was noted, 0.25 mL of solvent was added (total volume 0.5 mL). If a thick slurry was again noted, an additional 0.25 mL of solvent was added (total volume 0.75 mL). After stirring for 2 days, the slurries were centrifuged, the supernatant was collected into preweighed vials, and the solvent evaporated at 50° C. (ambient pressure) without stirring. The vials containing the solid residues were dried in a vacuum oven at 50 C, 10^−2-10^−1 Torr, for 3 h before weighing again to determine the mass of solid that was dissolved in the supernatant (i.e. mg solid/mL solvent).
About 20 mg of compound was weighed into vials. Solvent was added in aliquots and stirred at the designated temperature until complete dissolution was observed. This measurement gave a solubility range.

[2] = Dynamic vapor sorption (DVS); format: physicochemical
Method: DVS was performed using a DVS Intrinsic 1. The sample (20-25 mg) was loaded into a sample pan, suspended from a microbalance and exposed to a humidified stream of nitrogen gas. The sample was held for a minimum of 5 min at each level and only progressed to the next humidity level if there was <0.002% change in weight between measurements (interval: 60 s) or 240 min had elapsed. The following program was used: • 1. Equilibration at 50% RH • 2. 50% to 2%. (50%, 40%, 30%, 20%, 10%, and 2%) • 3. 2% to 95% (2%, 10%, 20%, 30%, 40%, 50%, 60%, 70%, 80%, 90%, and 95%) • 4. 95% to 2% (95%, 80%, 70%, 60%, 50%, 40%, 30%, 20%, 10%, and 2%) • 5. 2% to 50% (2%, 10%, 20%, 30%, 40%, and 50%)

[3] = Form stability at ambient conditions for one week (XRPD); format: physicochemical
From the text: Some of the samples generated in the antisolvent crystallization experiments were mixtures of Pattern B, Pattern C, and Pattern D. These samples were left at ambient conditions for one week, then analyzed again by XRPD.
Pure Pattern B was generated in the antisolvent crystallization with MIBK and heptane. […] The solids were scraped from the XRPD plate and used for simultaneous TGA/DSC analysis. […] After the solids required for the TGA/DSC analysis were transferred to the pan, the remainder of the solids were re-pressed to the XRPD sample plate and analyzed again.

[4] = Stability of crystalline forms at 40° C. and 75% relative humidity (XRPD, HPLC purity); settings: for Change by XRPD after storage / Degradation by HPLC purity analysis after storage: 40° C., 75% relative humidity
Method: Approximately 10 mg of the Crystalline Pattern D of Compound I Maleate, 20 mg of the Crystalline Pattern C of Compound I Maleate, and 10 mg of the Crystalline Pattern E of Compound I Mandelate were weighed into open 4 mL vials that were placed into a 20 mL vial containing a saturated NaCl solution. The vial was sealed and kept at 40° C. for 7 days, creating an atmosphere at 75% relative humidity in the system. After 7 days, the materials were sampled and plated for XRPD analysis.
The stability test was repeated on Patterns C and D of Compound I Maleate for 11 days.

[5] = Solubility in simulated fluids and water; format: physicochemical; settings: 37° C.
Method: Calibration samples for solubility in simulated fluids were prepared with freebase Compound I.
Solubility in simulated fluids were studied with the mandelate and maleate solids. The simulated fluids FaSSIF (fasted-state intestinal), FaSSGF (fasted-state gastric), and FeSSIF (fed-state intestinal) were removed from the refrigerator, warmed to room temperature, and the pH of each was measured. Between 1.9 and 2.0 mg of each salt was weighed into four vials and 1 mL of each fluid was added, including water. Stir bars (10 mm) were added to the vials and the vials were stirred at 37° C. After 30 mi (mandelate samples) or 1 h (maleate samples), the pH of each solution was measured, then 400 μL of each was removed and syringe filtered with 0.45 µm syringe filters. Approximately 300 μL of the recovered filtrate was diluted 5× with diluent and injected for HPLC analysis. The remainder of the samples in the vials were allowed to stir overnight. After 24 h stirring at 37° C., samples were filtered and diluted as before, and injected for analysis.

For CCOc1ccccc1-c1ccc(N2CCN(C(=O)C3(C(F)(F)F)CCC3)C[C@H]2CC)c(C(=O)N[C@@H]2CN3CCC2CC3)n1 [Pattern D Maleate, N-[(3S)-1-azabicyclo[2.2.2]octan-3-yl]-6-(2-ethoxyphenyl)-3-[(2R)-2-ethyl-4-[1-(trifluoromethyl)-cyclobutanecarbonyl]piperazin-1-yl]pyridine-2-carboxamide maleate], the “Solubility (in words)” value ([1]; EtOAc and MIBK at RT and 50° C.) was “freely soluble and soluble”, the solubility ([1]; EtOAc, 50 °C, organic solvent or mixture, thermodynamic from solid, EtOAc, 50° C., read-out: Solubility) was 68000 µg/mL and the solubility ([1]; EtOAc, RT, maleate) was 43^d mg/mL. The solubility ([1]; EtOH, RT, maleate) was >50^a mg/mL, the solubility ([1]; EtOH:MtBE (1:9 vol.), organic solvent or mixture, thermodynamic from solid, EtOH:MtBE (1:9 vol.), RT, read-out: Solubility) was 4000 µg/mL and the solubility ([1]; EtOH:MtBE (3:7 vol.), organic solvent or mixture, thermodynamic from solid, EtOH:MtBE (3:7 vol.), RT, read-out: Solubility) was 51000 µg/mL. For the same compound, the “Solubility (in words)” value ([1]; IP at RT) was “soluble”, the “Behaviour in solvent (in words)” value ([1]; IPA, 50° C.) was “a slurry could not be maintained” and the solubility ([1]; IPA, organic solvent or mixture, thermodynamic from solid, IPA, RT, read-out: Solubility) was 68000 µg/mL. For the same compound, the solubility ([1]; IPA:MtBE (1:1 vol.), organic solvent or mixture, thermodynamic from solid, IPA:MtBE (1:1 vol.), RT, read-out: Solubility) was 10000 µg/mL, the solubility ([1]; IPA:MtBE (1:9 vol.), organic solvent or mixture, thermodynamic from solid, IPA:MtBE (1:9 vol.), RT, read-out: Solubility) was less than 3000 µg/mL and the solubility ([1]; IPA:MtBE (3:7 vol.), organic solvent or mixture, thermodynamic from solid, IPA:MtBE (3:7 vol.), RT, read-out: Solubility) was 7000 µg/mL. It also gave a solubility ([1]; IPA:water (9:1 vol.), organic solvent or mixture, thermodynamic from solid, IPA:water (9:1 vol.), RT, read-out: Solubility) greater than 333000 µg/mL, a solubility ([1]; IPAc, 50 °C, organic solvent or mixture, thermodynamic from solid, IPAc, 50° C., read-out: Solubility) of 13000 µg/mL and a solubility ([1]; IPAc, organic solvent or mixture, thermodynamic from solid, IPAc, RT, read-out: Solubility) of 7000 µg/mL. The solubility ([1]; MEK, RT, maleate) was >50^a mg/mL, the solubility ([1]; MIBK, 50 °C, organic solvent or mixture, thermodynamic from solid, MIBK, 50° C., read-out: Solubility) was 65000 µg/mL and the solubility ([1]; MIBK, RT, maleate) was 43^c mg/mL. It also gave a solubility ([1]; MeOAc, 50 °C, organic solvent or mixture, thermodynamic from solid, MeOAc, 50° C., read-out: Solubility) greater than 250000 µg/mL, a solubility ([1]; MeOAc, organic solvent or mixture, thermodynamic from solid, MeOAc, RT, read-out: Solubility) of 168000 µg/mL and a solubility ([1]; MeOAc:MtBE (1:1 vol.), organic solvent or mixture, thermodynamic from solid, MeOAc:MtBE (1:1 vol.), RT, read-out: Solubility) of 17000 µg/mL. The solubility ([1]; MeOAc:MtBE (1:9 vol.), organic solvent or mixture, thermodynamic from solid, MeOAc:MtBE (1:9 vol.), RT, read-out: Solubility) was 3000 µg/mL, the solubility ([1]; MeOAc:MtBE (3:7 vol.), organic solvent or mixture, thermodynamic from solid, MeOAc:MtBE (3:7 vol.), RT, read-out: Solubility) was 7000 µg/mL and the solubility ([1]; MeOH, RT, maleate) was >50^a mg/mL. The solubility ([1]; MtBE, 50 °C, organic solvent or mixture, thermodynamic from solid, MtBE, 50° C., read-out: Solubility) was less than 3000 µg/mL, the solubility ([1]; MtBE, RT, maleate) was <3^c mg/mL and the solubility ([1]; THF, RT, maleate) was >50^a mg/mL. For the same compound, the solubility ([1]; acetone, RT, maleate) was >50^a mg/mL, the solubility ([1]; diethyl ether, organic solvent or mixture, thermodynamic from solid, diethyl ether, RT, read-out: Solubility) was 4000 µg/mL and the “Solubility (in words)” value ([1]; heptane, diethyl ether, and MtBE) was “insoluble”. For the same compound, the solubility ([1]; n-heptane, 50 °C, organic solvent or mixture, thermodynamic from solid, n-heptane, 50° C., read-out: Solubility) was less than 3000 µg/mL, the solubility ([1]; n-heptane, RT, maleate) was <3^c mg/mL and the “Hygroscopicity (in words)” value ([2]; DVS) was “slightly hygroscopic”. The “Change by XRPD following the DVS analysis” value ([2]; after DVS from 2 to 95% RH) was “No change”, the “Reversible mass gain (DVS)” value ([2]; from 2 to 95% relative humidity) was 1.14 wt. % and the “Behaviour at high humidity” value ([2]; high humidity) was “stable”. For the same compound, the “Form conversion by XRPD at ambient conditions” value [3] was “no observable conversion”, the “Change by XRPD after storage” value ([4]; 7 days) was “No visible change” and the “Degradation by HPLC purity analysis after storage” value ([4]; 7 days) was “no degradation”. The “Change by XRPD after storage” value ([4]; 11 days) was “No visible change”, the “Degradation by HPLC purity analysis after storage” value ([4]; 11 days) was “no degradation” and the “Stability on storage (in words)” value ([4]; over a week at 40° C. and 75% RH) was “stable”. The solubility at 1 h ([5]; FaSSGF (fasted-state simulated gastric fluid), pH 1.49, fassgf or other biorelevant, thermodynamic from solid, FaSSGF, 1 h) was greater than 2500 µg/mL, the solubility at 24 h ([5]; FaSSGF (fasted-state simulated gastric fluid), pH 1.49, fassgf or other biorelevant, thermodynamic from solid, FaSSGF, 24 h) was greater than 2500 µg/mL and the “Sample pH” value ([5]; FaSSGF (initial pH 1.49), 1 h) was 4.66. For the same compound, the “Sample pH” value ([5]; FaSSGF (initial pH 1.49), 24 h) was 5.07, the solubility at 24 h ([5]; FaSSIF (fasted-state simulated intestinal fluid), pH 6.35, thermodynamic from solid, FaSSIF, 24 h) was 1470 µg/mL and the solubility at 1 h ([5]; FaSSIF (fasted-state simulated intestinal fluid), thermodynamic from solid, FaSSIF, 1 h) was 1500 µg/mL. The “Sample pH” value ([5]; FaSSIF (initial pH 6.35), 1 h) was 6.23, the “Sample pH” value ([5]; FaSSIF (initial pH 6.35), 24 h) was 6.92 and the “Solids recovered from the solubility experiment (appearance, XRPD)” value ([5]; FaSSIF, after 24 h) was “oily and appeared as amorphous”. The solubility at 1 h ([5]; FeSSIF (fed-state simulated intestinal fluid), pH 4.83, thermodynamic from solid, FeSSIF, 1 h) was greater than 2500 µg/mL, the solubility at 24 h ([5]; FeSSIF (fed-state simulated intestinal fluid), pH 4.83, thermodynamic from solid, FeSSIF, 24 h) was greater than 2500 µg/mL and the “Sample pH” value ([5]; FeSSIF (initial pH 4.83), 1 h) was 1.50. The “Sample pH” value ([5]; FeSSIF (initial pH 4.83), 24 h) was 1.85, the solubility at 1 h ([5]; thermodynamic from solid, water, 1 h) was greater than 2500 µg/mL and the solubility at 24 h ([5]; thermodynamic from solid, water, 24 h) was greater than 2500 µg/mL. For the same compound, the “Sample pH” value ([5]; water, 1 h) was roughly 6.35 and the “Sample pH” value ([5]; water, 24 h) was 5.60.
